Measurements as given in patent publication US8518872B2, “Methods of using (+)-1,4-dihydro-7-[(3S,4S)-3-methoxy-4-(methylamino)-1-pyrrolidinyl]-4-OXO-1-(2-thiazolyl)-1,8-naphthyridine-3-carboxylic acid in combination therapy” (Sunesis Pharmaceuticals, Inc., priority 2007, dated 2013).
Several values for one entry are separate records, joined by “and”; a condition that tells them apart may be missing. Equal entries are not always repeated.

Legend:
[1] = test system: subcutaneous H460 (non-small cell lung carcinoma); assay: SNS-595 and carboplatin in non-small cell lung carcinoma H460 xenograft model; type: in vivo, athymic nude mice; settings: SNS-595 10 mg/kg IV qw x5, carboplatin 75 mg/kg IP qw x3, combination of both
Experimental: The effect of co-administration of SNS-595 and carboplatin was observed on the growth of non-small cell lung carcinoma, athymic nude mice bearing subcutaneous H460. The mice were treated with SNS-595, carboplatin or the two in combination as indicated below.

[2] = test system: subcutaneous A2780 xenografts (ovarian carcinoma); assay: SNS-595 and cisplatin in ovarian carcinoma A2780 xenograft model; settings: SNS-595 10 mg/kg IV qw x3, cisplatin 5 mg/kg IP qw x3, combination of both
Experimental: The effect of co-administration of SNS-595 and cisplatin was observed on the growth of ovarian carcinoma studied in athymic nude mice bearing subcutaneous A2780 xenografts. The mice were treated with SNS-595, cisplatin or the two in combination as indicated below.
Animal treatment was initiated when mean tumor volume was 200 mm^3. The combination was co-dosed once a week for three weeks. Tumor volumes and animal body weight were measured twice weekly.

[3] = test system: subcutaneous BxPC-3 xenografts (pancreatic carcinoma); assay: SNS-595 and gemcitabine in pancreatic carcinoma BxPC-3 xenograft model; type: in vivo, NIH-III mice; settings: SNS-595 15 mg/kg IV qw x3, gemcitabine 65 mg/kg IP biw x3; for BW Nadir: BxPC-3 xenograft mice; for BW Nadir / % Tumor Growth Inhibition (Day 38) / BW Nadir (Day of): combination of both; for BW Nadir (Day of): day of body weight nadir
Experimental: SNS-595 was administered once a week and gemcitabine was twice weekly for two weeks followed by one additional dose as indicated above with the combination being co-dosed. Tumor volume and animal body weight was measured at least once weekly. SNS-595 was administered once a week and gemcitabine was twice weekly for two weeks followed by one additional dose as indicated above with the combination being co-dosed. Tumor volume and animal body weight was measured at least once weekly.

[4] = test system: subcutaneous H460 xenografts (non-small cell lung carcinoma); assay: SNS-595 and gemcitabine in non-small cell lung carcinoma H460 xenograft model; type: in vivo, athymic nude mice; settings: SNS-595 10 mg/kg IV qw x3, gemcitabine 75 mg/kg IP biw x2, combination of both; for BW Nadir: H460 xenograft mice; for BW Nadir (Day of): day of body weight nadir
Experimental: The effect of co-administration of SNS-595 and gemcitabine on the growth of non-small cell lung carcinoma, athymic nude mice bearing subcutaneous H460 xenografts were treated with SNS-595, gemcitabine or the two in combination as indicated below.
SNS-595 was administered once a week and gemcitabine was twice weekly as indicated above with the combination being co-dosed. In the vehicle group, the gemcitabine vehicle was administered 24 hours after the SNS-595 vehicle representing additional treatment arms in the experiment. Tumor volume and animal body weight was measured at least twice weekly.

[5] = Solubility of SNS-595 in acidic compositions; type: physicochemical; settings: acidic compositions (<pH 4)
Experimental: An illustrative example of a suitable composition comprises: 10 mg SNS-595 per mL of aqueous solution of 4.5% sorbitol that is adjusted to pH 2.5 with methanesulfonic acid. One protocol for making such a solution includes the following for making a 100 mg/10 mL presentation: 100 mg of SNS-595 and 450 mg D-sorbitol are added to distilled water; the volume is brought up to a volume of 10 mL; and the pH of the resulting solution is adjusted to 2.5 with methanesulfonic acid. The resulting composition is also suitable for lyophilization. The lyophilized form is then reconstituted with sterile water to the appropriate concentration prior to use.

SMILES	% Tumor Growth Inhibition (Day 16) [1]	Tumor Growth Delay [1] [days]	% Tumor Growth Inhibition (Day 11) [2] [%]	Tumor Growth Delay [2] [days]	BW Nadir [3] [%]	% Tumor Growth Inhibition (Day 38) [3]	Tumor Growth Delay [3] [days]	BW Nadir (Day of) [3]	% Tumor Growth Inhibition (Day 11) [4]	BW Nadir [4] [%]	Tumor Growth Delay [4] [days]	BW Nadir (Day of) [4]	other results
N.N.O=C([O-])C1(C(=O)[O-])CCC1.[Pt+2] [Carboplatin, carboplatin]	31.6%	12.5	–	–	–	–	–	–	–	–	–	–	% Tumor Growth Inhibition (Day 16) ([1]; listed as carboplatin): 32%; BW Nadir ([1]; H460 xenograft mice): −2.8%; BW Nadir (Day of) ([1]; day of body weight nadir): (Day 16)
N.N.[Cl][Pt][Cl] [Cisplatin, cisplatin]	–	–	49.0	11.0	–	–	–	–	–	–	–	–	BW Nadir ([2]; A2780 xenograft mice): −10.9%; % Tumor Growth Inhibition (Day 11) ([2]; listed as cisplatin): 49%; BW Nadir (Day of) ([2]; day of body weight nadir): (Day 11)
Nc1ccn([C@@H]2O[C@H](CO)[C@@H](O)C2(F)F)c(=O)n1 [Gemcitabine, gemcitabine]	–	–	–	–	0	20.2%	12.5	(Day 0)	36.6%	−7.4	5.0	(Day 11)	% Tumor Growth Inhibition (Day 38) ([3]; listed as gemcitabine): 20%; % Tumor Growth Inhibition (Day 11) ([4]; listed as gemcitabine): 37%
CN[C@H]1CN(c2ccc3c(=O)c(C(=O)O)cn(-c4nccs4)c3n2)C[C@@H]1OC [SNS-595, (+)-1,4-dihydro-7-[(3S,4S)-3-methoxy-4-(methylamino)-1-pyrrolidinyl]-4-oxo-1-(2-thiazolyl)-1,8-naphthyridine-3-carboxylic acid]	53% and 53.2%	23.0	21.7	5.5	−2.5	26% and 25.9%	23.0	(Day 11)	62% and 61.9%	−5.9	11.0	(Day 11)	solubility [5]: increased solubility
